# Assay results as given in paper PMC10564794, “Safety and tolerability of oral vorolanib for neovascular (wet) age-related macular degeneration: a phase I, open-label study” (Eye, 2023).
# Read-outs that look alike come from different tables or passages of the source.
# Legend:
# [1] = Pharmacokinetics of vorolanib after single and multiple dosing; format: in vivo, human; settings: for Cmax / Tmax / half-life / AUC / Vd/F / AUC(0-t): human, plasma, oral; for Tmax: median (range); for Vd/F: read-out: Vz/F (apparent volume of distribution); for AUC(0-t): read-out: AUC0-24h
# Method: In the initial PK evaluation after a single dose, blood samples from participants in the 25 mg group were collected predose (−0.5 h) and at 0.5, 1, 2, 3, 4, 6, 8, 12, 16, 24, 36, and 48 h post-dose; blood samples from participants in the 50 mg and 75 mg groups were collected predose (−0.5 h) and at 0.5, 1, 2, 3, 4, 6, 8, 12, 16, 24, 36, 48, and 72 h post-dose. During continuous dosing, blood in the 50 mg group was obtained on Day 7, Day 14 and Day 21 predose and on Day 30 predose and at 0.5, 1, 2, 3, 4, 6, 8, 12, 16 and 24 h post-dose, while blood in the 75 mg group was obtained on Day 7, Day 14 and Day 21 predose and on Day 30 predose and at 0.5, 1, 2, 3, 4, 6, 8, 12, 16, 24, 36, 48, and 72 h post-dose. The multiple dose data for 25 mg were not collected.
# All participants moved from single dosing to multiple daily dosing.
# [2] = system: study eyes of participants with nAMD; assay: Efficacy: change from baseline in BCVA (ETDRS), CST and CNV characteristics; format: in vivo, human
# Method: The efficacy outcomes included changes from baseline in mean BCVA based on ETDRS, central subfield thickness (CST), and CNV characteristics. CST was confirmed by a […] (Heidelberg Engineering, Heidelberg, Germany) at screening, Day 14, and Day 30; then monthly for the next 6 months; and then every 3 months until the end of treatment. FA was performed by a Heidelberg retina tomograph (Heidelberg Engineering) with an Ophthavision Imaging System (MRP Group, Boston, MA) capture station at the screening, Day 90, Day 180, Day 270 and Day 360 visits.
# Because this was a phase I study, no power calculation was performed to determine sample size. All participants who had received at least one dose of vorolanib were included in the safety assessment. All participants who completed the course of vorolanib treatment were included for efficacy assessment. All participants who had received at least one dose of vorolanib and who had PK data were included in the PK analysis. Descriptive statistics were used for analyses. For quantitative data, the means ± standard deviations were selected. All statistical analyses were performed with SAS software, v. 9.4 (SAS Institute Inc., Cary, NC, USA).
# [3] = system: oxygen-induced retinopathy mice; set-up: method as in PMID 33610563; settings: cited from earlier work
# [4] = system: Caucasian participants with nAMD; settings: cited from earlier work
# [5] = system: human umbilical vein endothelial cells stimulated with rHuVEGF165; set-up: method as in PMID 33610563; settings: HUVEC stimulated with rHuVEGF165; cited from earlier work
# [6] = multiple doses 50 mg daily, n = 8, arithmetic mean (%CV)
# [7] = multiple doses 75 mg daily, n = 8, arithmetic mean (%CV)
smiles,measurement,setting,value
"Cc1[nH]c(/C=C2\C(=O)Nc3ccc(F)cc32)c(C)c1C(=O)N[C@H]1CCN(C(=O)N(C)C)C1 [vorolanib, Vorolanib]",Cmax,"[1]; 50 mg, multiple doses 50 mg daily, n = 8, arithmetic mean (%CV), read-out: Cmax,ss",246 ng/mL
same,Tmax,"[1]; 50 mg, multiple doses 50 mg daily, n = 8, read-out: Tmax,ss",5.03 h
same,half-life,"[1]; 50 mg, single dose 50 mg, n = 8, arithmetic mean (%CV)",10.7 h
same,Cmax,"[1]; 50 mg, single dose 50 mg, n = 8, arithmetic mean (%CV), read-out: Cmax",201 ng/mL
same,Tmax,"[1]; 50 mg, single dose 50 mg, n = 8, read-out: Tmax",6 h
same,half-life,"[1]; 75 mg, multiple doses 75 mg daily, n = 8, arithmetic mean (%CV)",7.3 h
same,Cmax,"[1]; 75 mg, multiple doses 75 mg daily, n = 8, arithmetic mean (%CV), read-out: Cmax,ss",269 ng/mL
same,Tmax,"[1]; 75 mg, multiple doses 75 mg daily, n = 8, read-out: Tmax,ss",4 h
same,half-life,"[1]; 75 mg, single dose 75 mg, n = 8, arithmetic mean (%CV)",10.3 h
same,Cmax,"[1]; 75 mg, single dose 75 mg, n = 8, arithmetic mean (%CV), read-out: Cmax",237 ng/mL
same,Tmax,"[1]; 75 mg, single dose 75 mg, n = 8, read-out: Tmax",4 h
same,half-life,"[1]; single dosing, 25–75 mg cohorts, approximately",5.9 to 10.7 h
same,AUC,[1]; [6],2180 ng·h/mL
same,Vd/F,[1]; [6],180 L
same,AUC,[1]; [7],1950 ng·h/mL
same,Vd/F,[1]; [7],436 L
same,AUC(0-t),"[1]; single dose 25 mg, n = 8, arithmetic mean (%CV)",1010 ng·h/mL
same,AUC(0-t),"[1]; single dose 50 mg, n = 8, arithmetic mean (%CV)",1730 ng·h/mL
same,AUC(0-t),"[1]; single dose 75 mg, n = 8, arithmetic mean (%CV)",1700 ng·h/mL
same,CLss/F (apparent oral clearance),[1]; [6],26.2 (40.1) L/h
same,Rac (accumulation ratio based on AUCss),[1]; [6],1.30 (31.3)
same,CLss/F (apparent oral clearance),[1]; [7],42.4 (32.7) L/h
same,Rac (accumulation ratio based on AUCss),[1]; [7],1.20 (36.2)
same,AUC in Chinese people versus Americans,"[1]; preliminary PK results, unpublished data",relatively higher AUC in Chinese people than in Americans
same,Mean Change from Baseline to day 180 CST,"[2]; 25 mg cohort, N 16",−11.7 μm
same,Mean Change from Baseline to day 360 BCVA,"[2]; 25 mg cohort, N 16",+4.3 letters
same,Mean Change from Baseline to day 360 CST,"[2]; 25 mg cohort, N 16",−27.0 μm
same,Mean Change from Baseline to day 180 CST,"[2]; 50 mg cohort, N 16",−85.0 μm
same,Mean Change from Baseline to day 360 BCVA,"[2]; 50 mg cohort, N 16",+8.5 letters
same,Mean Change from Baseline to day 360 CST,"[2]; 50 mg cohort, N 16",−54.8 μm
same,Mean Change from Baseline to day 180 CST,"[2]; 75 mg cohort, N 8",−33.0 μm
same,Mean Change from Baseline to day 360 BCVA,"[2]; 75 mg cohort, N 8",+12.0 letters
same,Mean Change from Baseline to day 360 CST,"[2]; 75 mg cohort, N 8",−45.5 μm
same,Mean decrease in CNV area,"[2]; 41 participants, baseline to Day 360, range −3.8–0.2",−0.9 mm^2
same,Mean decrease in lesion area,"[2]; 41 participants, baseline to Day 360, range −4.8–0.5",−1.3 mm^2
same,Mean decrease in CNV leakage,"[2]; 41 participants, baseline to Day 360, range −10.8–0.2",−4.0 mm^2
same,Mean BCVA improvement at follow-up after treatment,[2]; 75.6% of participants who continued follow-up one month after vorolanib treatment,2.6 letters
same,Participants evaluable at Day 360 who maintained or improved vision,[2]; Day 360,12 (29.3%) participants (%)
same,Reduced CNV area,[2]; accompanying decline in CNV leakage,37.4%
same,Mean Change from Baseline to day 180 CST,"[2]; all cohorts, N 41",−48.6 μm
same,Mean Change from Baseline to day 360 CST,"[2]; all cohorts, N 41, range −258–40",−44.0 μm
same,Mean reduction in CST,"[2]; by Day 180, all participants",48.6 μm
same,Retinal neovascularization and avascular area in the retina,[3],markedly inhibited
same,Participants with ocular AEs,"[4]; 4 of 35 participants, none related to vorolanib",11.4%
same,Participants with serious AEs,"[4]; 4 serious AEs in 3 participants, none attributed to vorolanib",8.6%
same,Mean BCVA change,[4]; at 24 weeks,+3.8 letters
same,Deaths or DLTs,[4],no deaths or DLTs
same,Systemic AEs,[4]; number of events,94
same,Vorolanib-related systemic AEs,[4]; of 94 systemic AEs,32
same,Mean reduction in CST,[4]; participants that completed 24 weeks,50 μm
same,Antiangiogenic effects,[5],highly antiangiogenic effects
